We go through 2 molecules from patent US20050039223A1, “Knock-in-mouse” (priority 2002, published 2005).

Assay [1] addresses T1, nAChR containing α4-T265I (control α4, mutated α4 and β2) (Homo sapiens, UniProt P17787+P43681, T293I).
T1 construct: expressed in transfected cells; host or cells: Xenopus oocytes, nuclear cDNA injection
In words: ACh- and CBZ-dose effect, two electrode voltage clamp in Xenopus oocytes expressing receptors containing α4-T265I. The assay is classed as cell-based. The method, then:
Expression experiments in Xenopus oocytes were conducted as previously described (2). Nuclear cDNA injections were conducted using a ratio of 0.5 control α4, 0.5 mutated α4 and 1 β2 (total amount 2 ng/oocytes) (3). The oocytes were kept in BARTH solution containing 88 mM NaCl, 1 mM KCl, 2.4 mM NaHCO3, 10 mM HEPES, 0.82 mM MgSO47H2O, 0.33 mM Ca(NO3)2.4H2O, 0.41 mM CaCl2.6H2O, pH 7.4, adjusted with NaOH and supplemented with kanamycin (20 μg/ml), penicillin (100 μg/ml) and streptomycin (100 μg/ml). Recordings were made 2 to 3 days later using the two electrode voltage clamp technique with a GENE-CLAMP amplifier (Axon Instrument). During the experiments the oocytes were continuously rinsed with OR2 solution: 82.5 mM NaCl, 2.5 mM KCl, 2.5 mM CaCl2, 5 mM HEPES, pH 7.4, adjusted with NaOH. Unless stated otherwise, the holding potential was −100 mV and the experiments were performed at 18° C. ACh dose response curves were best fitted by the sum of two empirical Hill equations: y=Imax{a/(1+(EC50H/x)^nH1)+(1−a)/(1+(EC50L/x)^nH2)} (equation (1)). Imax is the maximal current amplitude and x is the agonist concentration. EC50H, nH1 and a are the half-effective concentration, the Hill coefficient the percentage of receptors in high-affinity state, respectively, whereas EC50L and nH2 correspond to the half-effective concentration and the Hill coefficient in low-affinity state. […]
(In general: Two-electrode voltage clamp is typically applied to oocytes expressing channels or transporters.)

The test system of assay [2] is ADNFLE. Conditions: ADNFLE patients; antiepileptic drug resistant cases also exist; cited from earlier work.

T1 sequence (P43681 29-627 T293I limits assumed): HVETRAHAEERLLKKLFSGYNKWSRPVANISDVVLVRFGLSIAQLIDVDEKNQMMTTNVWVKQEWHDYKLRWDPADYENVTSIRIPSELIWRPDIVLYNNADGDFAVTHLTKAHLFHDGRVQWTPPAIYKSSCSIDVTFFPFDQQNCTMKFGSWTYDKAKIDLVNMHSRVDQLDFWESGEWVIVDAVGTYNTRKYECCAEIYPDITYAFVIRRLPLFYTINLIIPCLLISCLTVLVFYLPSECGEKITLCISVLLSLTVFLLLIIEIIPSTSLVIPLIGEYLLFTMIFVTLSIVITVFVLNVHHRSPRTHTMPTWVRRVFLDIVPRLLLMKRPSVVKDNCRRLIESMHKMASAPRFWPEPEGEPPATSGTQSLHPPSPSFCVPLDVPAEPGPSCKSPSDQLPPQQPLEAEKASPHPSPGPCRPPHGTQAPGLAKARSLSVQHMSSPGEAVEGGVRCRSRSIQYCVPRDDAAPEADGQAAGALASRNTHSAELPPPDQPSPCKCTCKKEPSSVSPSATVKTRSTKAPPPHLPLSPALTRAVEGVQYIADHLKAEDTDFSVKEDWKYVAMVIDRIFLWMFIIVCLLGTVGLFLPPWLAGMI
T1 sequence (P43681 27-627, stated change not applied): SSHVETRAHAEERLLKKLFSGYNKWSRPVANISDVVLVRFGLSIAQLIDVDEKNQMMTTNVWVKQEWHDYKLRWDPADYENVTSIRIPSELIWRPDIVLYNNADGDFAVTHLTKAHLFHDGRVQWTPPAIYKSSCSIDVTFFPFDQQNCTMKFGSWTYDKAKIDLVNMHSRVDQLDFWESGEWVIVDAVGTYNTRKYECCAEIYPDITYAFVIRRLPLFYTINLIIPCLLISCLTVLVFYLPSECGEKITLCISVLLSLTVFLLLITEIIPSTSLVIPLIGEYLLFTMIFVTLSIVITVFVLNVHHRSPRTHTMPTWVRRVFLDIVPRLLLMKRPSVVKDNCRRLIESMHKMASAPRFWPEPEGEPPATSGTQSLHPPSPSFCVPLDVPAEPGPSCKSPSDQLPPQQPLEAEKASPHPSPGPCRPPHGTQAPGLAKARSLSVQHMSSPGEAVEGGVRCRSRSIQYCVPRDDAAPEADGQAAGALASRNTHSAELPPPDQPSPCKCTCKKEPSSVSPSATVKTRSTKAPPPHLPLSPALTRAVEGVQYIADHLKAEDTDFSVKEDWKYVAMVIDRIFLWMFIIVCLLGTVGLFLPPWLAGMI
T1 sequence (P17787 26-502): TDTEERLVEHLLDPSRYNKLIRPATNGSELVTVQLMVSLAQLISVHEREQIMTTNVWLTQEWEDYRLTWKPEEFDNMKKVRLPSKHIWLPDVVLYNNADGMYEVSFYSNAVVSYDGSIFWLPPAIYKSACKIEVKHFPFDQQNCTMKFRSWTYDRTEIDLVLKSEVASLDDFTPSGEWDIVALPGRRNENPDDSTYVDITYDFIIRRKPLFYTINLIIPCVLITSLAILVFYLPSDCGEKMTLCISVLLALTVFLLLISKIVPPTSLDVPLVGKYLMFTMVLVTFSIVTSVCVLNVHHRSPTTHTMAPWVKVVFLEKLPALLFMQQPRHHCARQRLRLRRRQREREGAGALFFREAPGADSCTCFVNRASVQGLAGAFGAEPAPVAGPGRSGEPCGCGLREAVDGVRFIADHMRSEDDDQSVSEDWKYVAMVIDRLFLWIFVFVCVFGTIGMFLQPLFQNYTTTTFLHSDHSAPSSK

`CC(=O)OCC[N+](C)(C)C` [ACh]: the “ACh-sensitivity of the mutated receptors” value in assay [1] (α4-T265I mutated receptors compared with control, Xenopus oocytes) is on record as “increased”.
With `NC(=O)N1c2ccccc2C=Cc2ccccc21` [Carbamazepin, Carbamazepine], the “Treatability of ADNFLE” value in assay [2] was “can normally be well treated”. Also, the Carbamazepin-sensitivity entry in assay [1] (α4-T265I compared with control, CBZ inhibition of ACh-evoked currents) is given as “non-increased”.
